Data published in patent publication US10717731B2, “Nitrogen-containing aromatic heterocyclic compound” (MITSUBISHI TANABE PHARMA CORPORATION, priority 2015, dated 2020).

These compounds were tested against T1, human CYP11B2 (Homo sapiens, UniProt P19099) (assay: Inhibitory effect on hCYP11B2: aldosterone production in mitochondrial fraction of V79 cells stably expressing human CYP11B2, HTRF). Settings: 0.5 μmol/L deoxycorticosterone, 150 μmol/L NADPH, 1.5-2 hours at room temperature.
T1 construct: expressed in transfected cells; mitochondrial fraction
T1 sequence (P19099 25-503): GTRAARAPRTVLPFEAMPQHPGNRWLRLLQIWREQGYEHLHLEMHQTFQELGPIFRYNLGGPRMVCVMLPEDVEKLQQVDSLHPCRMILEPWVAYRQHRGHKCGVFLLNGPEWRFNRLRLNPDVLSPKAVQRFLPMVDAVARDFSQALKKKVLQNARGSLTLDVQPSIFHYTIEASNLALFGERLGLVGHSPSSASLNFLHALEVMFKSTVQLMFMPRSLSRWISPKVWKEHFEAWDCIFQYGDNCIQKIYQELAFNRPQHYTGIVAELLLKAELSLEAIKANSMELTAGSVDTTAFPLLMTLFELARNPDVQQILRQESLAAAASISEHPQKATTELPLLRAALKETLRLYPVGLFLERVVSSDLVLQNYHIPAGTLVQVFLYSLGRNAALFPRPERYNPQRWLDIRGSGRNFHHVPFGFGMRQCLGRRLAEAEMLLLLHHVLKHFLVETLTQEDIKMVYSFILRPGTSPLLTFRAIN
Type: biochemical
Procedure: Experimental Example 1 (Inhibitory Effect on hCYP11B2)
The pcDNA3.1-human CYP11B2 plasmid was transfected into a Chinese hamster lung fibroblast V79 cell line to produce a cell line stably expressing human CYP11B2 gene.
The cells were cultured and grown in the Dulbecco's modified Eagle's/Ham's medium supplemented with 10% fetal bovine serum and 1% G418 disulfate solution under the environment of 37° C., 95% air, and 5% CO2, and the grown cells were harvested.
Then, the cells were fractionated to obtain mitochondria by reference to a method described in Chabre et al. JCE & M 85 (11) 4060-68, 2000. In particular, the cells suspended in a 5 mmol/L Tris-HCl buffer (pH 7.4) containing 250 mmol/L sucrose were homogenized in a Teflon (Registered Trademark) Potter Elvehjem homogenizer, and then the suspension was centrifuged (800×g, 15 min.). The supernatant was separated and again centrifuged (10000×g, 15 min.) to obtain a pellet (mitochondrial fraction).
The mitochondrial fraction diluted with a buffer containing 10 mmol/L KH2PO4, 10 mmol/L Tris, 20 mmol/L KCl, 25 mmol/L sucrose, 5 mmol/L MgCl2, and 0.05% bovine serum albumin was dispensed to a 96-well plate. 0.5 μmol/L Deoxycorticosterone, 150 μmol/L NADPH and a compound of each concentration were added to each well, and incubated for 1.5-2 hours at room temperature to produce aldosterone. An amount of the produced aldosterone in the incubated solution was determined by using HTRF (Homogeneous Time Resolved Fluorescence) method.
IC50 (nmol/L) was calculated by analyzing the aldosterone production inhibition rate (%) of each concentration of compounds by non-linear regression to a logistic curve.
`CC(C)NC(=O)CN1CCN(c2cncc(-c3ccc4cnn(C)c4c3)n2)CC1` [Example 49] showed an IC50 of 0.0075 µM. `CC(=O)N[C@H]1CC[C@@H](NC(=O)CN2CCN(c3cc(-c4ccc(Cl)cc4)cnn3)CC2)CC1` [Example 69] gave an IC50 of 0.012 µM. `O=C(CN1CCN(c2cc(-c3ccc(Cl)cc3)cnn2)CC1)NC1CCS(=O)(=O)CC1` [Example 70] gave an IC50 of 0.006 µM. With `CS(=O)(=O)CCN1CCC(NC(=O)CN2CCN(c3cc(-c4ccc(F)cc4)cnn3)CC2)CC1` [Example 71] the IC50 was 0.016 µM. In the case of `O=C(CN1CCN(c2cc(-c3ccc(F)cc3)cnn2)CC1)NC1CCC(N2CCOCC2)CC1` (centres unmarked) [Example 72], the IC50 is reported as 0.011 µM. Compound `CNC(=O)CN1CCC(NC(=O)CN2CCN(c3cc(-c4ccc(F)cc4)cnn3)CC2)CC1` [Example 73] has an IC50 of 0.018 µM. `O=C(CN1CCN(c2cc(-c3ccc(F)cc3)cnn2)CC1)NCCN1CCS(=O)(=O)CC1` [Example 74] was tested, and the IC50 was 0.019 µM. Work on `COc1ccccc1-c1cnnc(N2CCN(CC(=O)N[C@H]3CC[C@@H](N(C)C)CC3)CC2)c1` [Example 75] yielded an IC50 of 0.041 µM. `COCc1ccc(-c2cnnc(N3CCN(CC(=O)N[C@H]4CC[C@@H](N(C)C)CC4)CC3)c2)cc1` [Example 76] showed an IC50 of 0.103 µM. In the case of `Cc1ccccc1-c1cnnc(N2CCN(CC(=O)N[C@H]3CC[C@@H](N(C)C)CC3)CC2)c1` [Example 77], the IC50 is reported as 0.022 µM. `O=C(CN1CCN(c2cc(-c3ccc(F)cc3)cnn2)CC1)NC1CCN(CCO)CC1` [Example 78] was tested, and the IC50 was 0.028 µM. `CN(C)[C@H]1CC[C@H](NC(=O)CN2CCN(c3cc(-c4ccc(F)cc4)cnn3)CC2)CC1` [Example 79] gave an IC50 of 0.021 µM. For `CN(C)[C@H]1CC[C@H](NC(=O)CN2CCN(c3cc(-c4ccc(Cl)cc4)cnn3)CC2)CC1` [Example 80], the IC50 was 0.017 µM. `CC1CC=C(c2cnnc(N3CCN(CC(=O)NC(C)C)CC3)c2)CC1` (centres unmarked) [Example 81] gave an IC50 of 0.0091 µM. In the case of `CC(C)NC(=O)CN1CCN(c2cc(-c3ccc4c(c3)CCO4)cnn2)CC1` [Example 82], the IC50 is reported as 0.014 µM. With `CC(C)NC(=O)CN1CCN(c2cc(-c3ccc(C#N)nc3)cnn2)CC1` [Example 83] the IC50 was 0.102 µM. Work on `CC1CCC(c2cnnc(N3CCN(CC(=O)NC(C)C)CC3)c2)CC1` (centres unmarked) [Example 84] yielded an IC50 of 0.032 µM. With `CC(C)NC(=O)CN1CCN(c2cc(-c3ccc(F)cc3)cnn2)CC1` [Example 85] the IC50 was 0.007 µM. `CC(C)NC(=O)CN1CCN(c2cc(-c3ccc4ccccc4c3)cnn2)CC1` [Example 86] showed an IC50 of 0.0084 µM. `CC(C)NC(=O)CN1CCN(c2cc(-c3ccc(C(F)(F)F)cc3)cnn2)CC1` [Example 87] was tested, and the IC50 was 0.018 µM. In the case of `CC(C)(C)OC(=O)N1CC[C@@H](NC(=O)CN2CCN(c3cc(-c4ccc(F)cc4)cnn3)CC2)[C@H](F)C1` [Example 88], the IC50 is reported as 0.0078 µM. With `Cc1c(-c2ccc(F)cc2)cnnc1N1CCN(CC(=O)NC(C)C)CC1` [Example 92] the IC50 was 0.083 µM.

What follows are compounds tested against T2, human Cyp11B1 (Homo sapiens, UniProt P15538) (assay: Selectivity: IC50 against human Cyp11B2 compared with human Cyp11B1). Settings: ratio of IC50 values (nM).
T2 sequence (P15538 25-503): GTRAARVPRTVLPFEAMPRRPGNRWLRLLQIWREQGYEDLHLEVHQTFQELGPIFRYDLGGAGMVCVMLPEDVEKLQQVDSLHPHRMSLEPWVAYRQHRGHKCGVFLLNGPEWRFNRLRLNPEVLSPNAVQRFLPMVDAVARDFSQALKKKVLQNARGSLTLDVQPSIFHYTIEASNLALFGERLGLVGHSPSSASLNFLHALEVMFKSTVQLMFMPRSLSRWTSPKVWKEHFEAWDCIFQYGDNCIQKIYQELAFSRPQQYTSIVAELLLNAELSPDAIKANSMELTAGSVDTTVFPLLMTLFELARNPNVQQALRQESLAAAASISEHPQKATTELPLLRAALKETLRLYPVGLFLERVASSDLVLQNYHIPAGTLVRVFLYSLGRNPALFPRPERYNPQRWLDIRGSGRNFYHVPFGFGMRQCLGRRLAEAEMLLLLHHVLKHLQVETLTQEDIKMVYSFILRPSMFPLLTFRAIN
Type: biochemical
`CC(C)NC(=O)CN1CCN(c2cncc(-c3ccc4cnn(C)c4c3)n2)CC1` [Example 49] was tested, and the “IC50 value against human Cyp11B2 versus human Cyp11B1 (selectivity)” value was 100 times.
